Experimental data taken from US20120172351A1, “NOVEL FUSED CYCLIC COMPOUND AND USE THEREOF” (priority 2009, published 2012).
Marks after values point to notes of the source that are not given here.

How the values were obtained:
human derived GPR40 = molecular target: T1, human derived GPR40 (Homo sapiens, UniProt O14842); test: Agonist action on human derived GPR40: change of intracellular calcium concentration in CHO cells (FLIPRtetra); format: cell-based; conditions: agonist activity of compound at 1 μM, relative to 10 μM γ linolenic acid as 100%, wave peak height; CHO cells stably expressing human GPR40
T1 construct: expressed in transfected cells
Experimental: The CHO cell lines that stably expressed human derived GPR40 were used for the determination of the agonist activity. Unless particularly specified, the CHO cell lines were cultured in an α-MEM medium (Wako Pure Chemical Industries, Ltd.) containing 10% dialyzed fetal bovine serum (TRA Thermo Electron).
The cells cultured almost to confluent on the day before assay were rinsed with PBS (Invitrogen), detached with 0.5 mM EDTA (Wako Pure Chemical Industries, Ltd.), and recovered by centrifugation. The obtained cells were counted, diluted to 2×10^5 cells per 1 mL medium, dispensed by 40 μL per well to a 384 well black clear bottomplate (PE Biosystems), and cultured overnight in a CO2 incubator. Various test compounds were added to CHO cells prepared as mentioned above, and change of intracellular calcium concentration was measured using FLIPRtetra (Molecular Device). For the measurement by this device, a Calcium 4 assay kit (Molecular Devices: R8142) was used.
First, fatty acid free BSA at the final concentration of 0.1% was added to the buffer attached to the kit to prepare an assay buffer. Using the assay buffer, a loading solution with Fluo4 was prepared such that the final concentration of fatty acid free BSA was 0.1% and the final concentration of probenecid was 625 μM. On the other hand, a test compound was diluted with the assay buffer to a given concentration, and dispensed to the polypropylene 384-well plate (sample plate). The medium was removed from the cell culture plate, and the loading solution with Fluo4 was dispensed by 25 μL. After culture in a CO2 incubator at 37° C. for 40 min, a sample plate and a cell plate were simultaneously set on the FLIPRtetra, various test compounds were added by 25 μL according to the program of the device, and change of intracellular calcium concentration was measured. The agonist activity of each compound at 1 μM was calculated as a relative activity value to the activity of 10 μM γ linolenic acid as 100% from the wave peak height.

N-STZ-1.5 rat = test: Oral glucose tolerance test in N-STZ-1.5 rat (type 2 diabetes model); format: in vivo; conditions: male N-STZ-1.5 rats, 1 mg/kg oral, glucose 1.5 g/kg 1 hr after dosing; for Blood glucose lowering rate: glucose AUC 0-120 min vs control group; for Insulin increasing rate: insulin AUC 0-120 min vs control group
Experimental: The blood glucose increase suppressive action and insulin secretagogue action of the compound of the present invention were evaluated by an oral glucose tolerance test using N-STZ-1.5 rat (TAKEDA RABICS).
Streptozotocin (120 mg/kg) was subcutaneously administered to male Wistar Kyoto rats (1-2 days old) to prepare N-STZ-1.5 rat which is a type 2 diabetes model. The rats were bred under free access to a feed (CE-2, sold by CLEA Japan, Inc.).
Male N-STZ-1.5 rats (21-week-old) were fasted for 19-21 hr, and the body weight was measured. Heparin (Ajinomoto Co., Inc.) was added as an anticoagulant, and aprotinin (SIGMA) was added as a protease inhibitor, and the blood was collected from the tail vein. 0.5% Methylcellulose (control group) or a 0.5% methylcellulose suspension of a test compound (1 mg/kg body weight) was orally administered to the rats of each group (6 per group) at 5 ml/kg and, 1 hr after the administration, a glucose solution (Otsuka Pharmaceutical Factory, Inc.) was orally administered at 1.5 g/5 ml/kg. The blood was collected from the tail vein immediately before glucose loading (0 min value) and 10, 30, 60, 120 min thereafter. The blood was centrifuged and the plasma was separated. The plasma glucose and insulin concentration of the obtained plasma were measured. The plasma glucose was measured by automatic analyzer 7080 (HITACHI), and the insulin concentration was measured by RAT INSULIN RIA KIT (LINCO Research). The glucose AUC and insulin AUC were calculated from the obtained values by the following formulas. Moreover, blood glucose lowering rate and insulin increasing rate were calculated from the obtained AUC by the following formulas. Statistical significance versus control was analyzed by Student's t-test or Aspin-Welch test.
{(0 min plasma glucose)+(10 min plasma glucose)}×10/2+{(10 min plasma glucose)+(30 min plasma glucose)}×20/2+{(30 min plasma glucose)+(60 min plasma glucose)}×30/2+{(60 min plasma glucose)+(120 min plasma glucose)}×60/2
{(0 min plasma insulin)+(10 min plasma insulin)}×10/2+{(10 min plasma insulin)+(30 min plasma insulin)}×20/2+{(30 min plasma insulin)+(60 min plasma insulin)}×30/2+{(60 min plasma insulin)+(120 min plasma insulin)}×60/2
blood glucose lowering rate: [(test compound administration group glucose AUC/control group glucose AUC)−1]×100
insulin increasing rate: [(test compound administration group insulin AUC/control group […] AUC)-1]×100

Wistar fatty rat = test: Oral glucose tolerance test in Wistar fatty rat; format: in vivo; conditions: female Wistar fatty rats, 1 mg/kg oral, glucose 1 g/kg 1 hr after dosing; glucose AUC 0-120 min vs control group
Experimental: The blood glucose increase suppressive action of the compound of the present invention was evaluated by an oral glucose tolerance test using Wistar fatty rat (TAKEDA RABICS).
The animal used was female Wistar fatty rat (prepared by TAKEDA RABICS, 18- to 22-week-old). The rats were bred under free access to a feed (CE-2, sold by CLEA Japan, Inc.).
Female Wistar fatty rats (18- to 22-week-old) were fasted for 19-21 hr, and the body weight was measured. Heparin (Ajinomoto Co., Inc.) was added as an anticoagulant, and aprotinin (SIGMA) was added as a protease inhibitor, and the blood was collected from the tail vein. 0.5% Methylcellulose (control group) or a 0.5% methylcellulose suspension of a test compound (1 mg/kg body weight) was orally administered to the rats of each group (6 per group) at 5 ml/kg and, 1 hr after the administration, a glucose solution (Otsuka Pharmaceutical Factory, Inc.) was orally administered at 1 g/5 ml/kg. […] The plasma glucose of the obtained plasma were measured by automatic analyzer 7080 (HITACHI). The glucose AUC was calculated from the obtained values by the formulas described in Experimental Example 2. Moreover, blood glucose lowering rate was calculated from the obtained AUC by the formulas described in Experimental Example 2. Statistical significance versus control was analyzed by Student's t-test.

T1 sequence (O14842 whole entry): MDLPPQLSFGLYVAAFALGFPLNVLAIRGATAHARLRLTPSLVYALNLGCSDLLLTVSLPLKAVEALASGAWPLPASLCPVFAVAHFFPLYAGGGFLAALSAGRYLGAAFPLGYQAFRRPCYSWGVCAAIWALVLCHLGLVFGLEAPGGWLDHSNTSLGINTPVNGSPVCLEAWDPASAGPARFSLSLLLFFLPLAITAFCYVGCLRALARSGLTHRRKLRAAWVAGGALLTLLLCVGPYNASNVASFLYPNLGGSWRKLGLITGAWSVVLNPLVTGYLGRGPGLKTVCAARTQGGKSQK

Cc1cc(OCCCS(C)(=O)=O)cc(C)c1-c1cccc2c1OC[C@H]2Nc1ccc2c(c1)OC[C@H]2CC(=O)O [Example 7, [(3S)-6-{[(3S)-7-{2,6-dimethyl-4-[3-(methylsulfonyl)propoxy]phenyl}-2,3-dihydro-1-benzofuran-3-yl]amino}-2,3-dihydro-1-benzofuran-3-yl]acetic acid]
activity (%) (human derived GPR40): 124% | melting point: 169 °C | Blood glucose lowering rate (N-STZ-1.5 rat): −20.5%** | Insulin increasing rate (N-STZ-1.5 rat): +39.5%^$

Cc1cc(OC2CCS(=O)(=O)CC2)cc(C)c1-c1cccc2c1OC[C@H]2Nc1ccc2c(c1)OC[C@H]2CC(=O)O [Example 9, [(3S)-6-{[(3S)-7-{4-[(1,1-dioxidotetrahydro-2H-thiopyran-4-yl)oxy]-2,6-dimethylphenyl}-2,3-dihydro-1-benzofuran-3-yl]amino}-2,3-dihydro-1-benzofuran-3-yl]acetic acid]
activity (%) (human derived GPR40): 128% | melting point: 176 °C | Blood glucose lowering rate (Wistar fatty rat): −15.8%**

CCOc1nc2ccc(F)c(F)c2n1-c1cccc2c1OC[C@H]2Nc1ccc2c(c1)OC[C@H]2CC(=O)[O-].[Na+] [Example 33, sodium [(3S)-6-{[(3S)-7-(2-ethoxy-6,7-difluoro-1H-benzimidazol-1-yl)-2,3-dihydro-1-benzofuran-3-yl]amino}-2,3-dihydro-1-benzofuran-3-yl]acetate]
activity (%) (human derived GPR40): 109% | Blood glucose lowering rate (Wistar fatty rat): −19.5%**

Cc1nc(N2CCOCC2)nc(C)c1-c1cccc2c1OC[C@H]2Nc1ccc2c(c1)OC[C@H]2CC(=O)O.O [Example 77-1, Hydrate of [(3S)-6-({(3S)-7-[4,6-dimethyl-2-(morpholin-4-yl)pyrimidin-5-yl]-2,3-dihydro-1-benzofuran-3-yl}amino)-2,3-dihydro-1-benzofuran-3-yl]acetic acid]
Blood glucose lowering rate (N-STZ-1.5 rat): −13.6%^$ | Insulin increasing rate (N-STZ-1.5 rat): +40.2%^$
